Laboratory results published in US7238830B2, “N-alkylaspartyl dipeptide ester compounds” (Ajinomoto Co., Inc., priority 1998, dated 2007).
Read-outs that look alike come from different tables or passages of the source. Peptide text beside a SMILES is read from it.

Columns and labels:
[1] = reported in WO 94/11391, compared to 2%, 5% and 10% sucrose solutions, cited from earlier work
[2] = Sensory evaluation of sweetness (sweetening potency) relative to sucrose; conditions: for Sweetness (sweetening potency): sensory evaluation; for sweetness potency: values compared to sweetening potency of a 4% aqueous solution of sucrose
Description: For example, the sweetness of N-[N-[3-(3-hydroxy-4-methoxyphenyl)-3-methylbutyl]-L-α-aspartyl]-L-phenylalanine 1-methyl ester was approximately 70000 times that of sugar, the sweetness of N-[N-[3-(3-methyl-4 hydroxyphenyl)-3-methylbutyl]-L-α-aspartyl]-L-phenylalanine 1-methyl ester was approximately 70000 times that of sugar, the sweetness of N-[N-[3-(3-hydroxy-4-methylphenyl)-3-methylbutyl]-L-α- aspartyl]-L-phenylalanine 1-methyl ester was approximately 60000 times that of sugar, and the sweetness of N-[N-((RS)-3-(3 hydroxy-4-methoxyphenyl) butyl]-L-α-aspartyl]-L-phenylalanine 1-methyl ester was approximately 50000 times that of sugar. […] Sensory evaluations can be performed as described in, for example, B. T. Carr, S. D. Pecore, K. M. Gibes and G. E. Dubois, “Sensory Methods for Sweetner Evaluation” in Flavor Measurement, edited by C. T. Ho and C. H. Manley, Marcel Decker, Inc. (1992).

physchem = assay type: physicochemical; conditions: buffer, pH 3

Compound	Sweetness (sweetening potency) [2]	sweetness potency [2]	also measured
COC(=O)[C@H](Cc1ccc(O)cc1)NC(=O)[C@H](CC(=O)O)NCCC(C)(C)C [N-[N-(3,3-dimethylbutyl)-L-α-aspartyl]-L-tyrosine 1-methyl ester]			sweetening potency [1]: 4,000 times that of sucrose; sweetening potency ([1]; listed as N-[N-(3,3-dimethylbutyl)-L-α-aspartyl]-L-tyrosine 1-methylester): 4000 times that of sucrose
COC(=O)[C@H](Cc1ccccc1)NC(=O)[C@H](CC(=O)O)NCCC(C)(C)c1ccc(OC)cc1O [Compound 14, N-[N-[3-(2-hydroxy-4-methoxyphenyl)-3-methylbutyl]-L-α-aspartyl]-L-phenylalanine 1-methyl ester]	20000 times the sweetness of sugar	20000	
COC(=O)[C@H](Cc1ccccc1)NC(=O)[C@H](CC(=O)O)NCCC(C)(C)c1ccc(O)c(C)c1 [Compound 18, N-[N-[3-(3-methyl-4-hydroxyphenyl)-3-methylbutyl)-L-α-aspartyl]-L-phenylalanine 1-methyl ester]	approximately 70000 times the sweetness of sugar	70000	Sweetness (sweetening potency) ([2]; listed as Example 11): 70000 times the sweetness of sugar
COC(=O)[C@H](Cc1ccccc1)NC(=O)[C@H](CC(=O)O)NCCC(C)(C)c1ccc(C)c(O)c1 [Compound 19, N-[N-[3-(3-hydroxy-4-methylphenyl)-3-methylbutyl]-L-α-aspartyl]-L-phenylalanine 1-methyl ester]	approximately 60000 times the sweetness of sugar	60000	Sweetness (sweetening potency) ([2]; listed as Example 22): 60000 times the sweetness of sugar
COC(=O)[C@H](Cc1ccccc1)NC(=O)[C@H](CC(=O)O)NCCCc1ccc(O)c(OC)c1 [N-[N-(3-(3-methoxy-4-hydroxyphenylpropyl)-L-α-aspartyl]-L-phenylalanine 1-methyl ester]			sweetening potency [1]: 2500 times that of sucrose
COC(=O)[C@H](Cc1ccccc1)NC(=O)[C@H](CC(=O)O)NCCCc1ccccc1 [N-[N-(3-phenylpropyl)-L-(α-aspartyl]-L-phenylalanine 1-methyl ester]			sweetening potency [1]: 1500 times that of sucrose
COC(=O)[C@H](Cc1ccccc1)NC(=O)[C@H](CC(=O)O)NCCC(C)c1ccc(OC)c(O)c1 (mixture of isomers) [Compound 4, N-[N-[(RS)-3-(3-hydroxy-4-methoxyphenyl)butyl]-L-α-aspartyl]-L-phenylalanine 1-methyl ester]	approximately 50000 times the sweetness of sugar	50000	Sweetness (sweetening potency) ([2]; listed as Example 17): 50000 times the sweetness of sugar
COC(=O)[C@H](Cc1ccccc1)NC(=O)[C@H](CC(=O)O)NCCC(C)c1cccc(O)c1 (mixture of isomers) [Compound 2, N-[N-[(RS)-3-(3-hydroxyphenyl)butyl]-L-α-aspartyl]-L-phenylalanine 1 methyl ester]	12000 times the sweetness of sugar	12000	
COC(=O)[C@H](Cc1ccccc1)NC(=O)[C@@H](N)CC(=O)O [aspartame, reference compound] (H-Asp-Phe-OMe)			half-life (physchem): 23.5 h
COC(=O)[C@H](Cc1ccccc1)NC(=O)[C@H](CC(=O)O)NCCC1(c2ccc(O)c(OC)c2)CCCC1 [Compound 20, N-[N-[2-[1-(3-methoxy-4-hydroxyphenyl)cyclopentyl]ethyl]-L-α-aspartyl]-L-phenylalanine 1-methyl ester]	30000 times the sweetness of sugar	30000	
COC(=O)[C@H](CC1CCCCC1)NC(=O)[C@H](CC(=O)O)NCCC(C)c1ccc(OC)c(O)c1 (mixture of isomers) [Compound 6]	40000 times the sweetness of sugar	40000	
COC(=O)[C@H](Cc1ccccc1)NC(=O)[C@H](CC(=O)O)NCCC(C)(C)c1ccc(OC)c(O)c1	approximately 70000 times the sweetness of sugar		
COC(=O)[C@H](Cc1ccccc1)NC(=O)[C@H](CC(=O)O)NCCC(C)c1ccc(O)c(OC)c1 (mixture of isomers) [Compound 3, N-[N-[(RS)-3-(3-methoxy-4-hydroxyphenyl)butyl]-L-α-aspartyl]-L-phenylalanine 1-methyl ester]	30000 times the sweetness of sugar	30000	
COC(=O)[C@H](Cc1ccccc1)NC(=O)[C@H](CC(=O)O)NC(C)CCc1ccc(O)c(OC)c1 (mixture of isomers) [N-[N-[3-(3-methoxy-4-hydroxyphenyl)(RS)-1-methylpropyl]-L-α-aspartyl]-L-phenylalanine 1-methylester]			sweetening potency [1]: 500 times that of sucrose
COC(=O)[C@H](Cc1ccccc1)NC(=O)[C@H](CC(=O)O)NCCC(C)(C)c1ccccc1O [Compound 13, N-[N-[3-(2-hydroxyphenyl)-3-methylbutyl]-L-α-aspartyl]-L-phenylalanine 1-methyl ester]	8000 times the sweetness of sugar	8000	
COC(=O)[C@H](Cc1ccccc1)NC(=O)[C@H](CC(=O)O)NCCC(C)(C)c1ccc(C)cc1O [Compound 15, N-[N-[3-(2-hydroxy-4-methylphenyl)-3-methylbutyl]-L-α-aspartyl]-L-phenylalanine 1-methyl ester]	25000 times the sweetness of sugar	25000	
COC(=O)[C@H](Cc1ccccc1)NC(=O)[C@H](CC(=O)O)NCCC(C)c1ccc(OC)cc1 (mixture of isomers) [Compound 1, N-[N-[(RS)-3-(4-methoxyphenyl)butyl]-L-α-aspartyl]-L-phenylalanine 1-methyl ester]	16000 times the sweetness of sugar	16000	
CCOC(=O)[C@H](Cc1ccccc1)NC(=O)[C@H](CC(=O)O)NCCC(C)(C)c1ccc(OC)c(O)c1 [Compound 21, N-[N-[3-(3-hydroxy-4-methoxyphenyl)-3-methylbutyl]-L-α-aspartyl]-L-phenylalanine 1-ethyl ester]	15000 times the sweetness of sugar	15000	
COC(=O)[C@H](Cc1ccccc1)NC(=O)[C@H](CC(=O)O)NCCC(C)(C)c1ccc2c(c1)OCO2 [Compound 16, N-[N-[3-(3,4-methylenedioxyphenyl)-3-methylbutyl]-L-α-aspartyl]-L-phenylalanine-1-methyl ester]	30000 times the sweetness of sugar	30000	
COC(=O)[C@H](Cc1ccccc1)NC(=O)[C@H](CC(=O)O)NCC(C)Cc1ccc(OC)c(O)c1 (mixture of isomers) [Compound 12, N-[N-[3-(3-hydroxy-4-methoxyphenyl)-(RS)-2-methylpropyl)-L-α-aspartyl)-L-phenylalanine 1-methyl ester]	5000 times the sweetness of sugar	5000	
COC(=O)[C@H](Cc1ccc(O)cc1)NC(=O)[C@H](CC(=O)O)NCCC(C)c1ccc(O)c(OC)c1 (mixture of isomers) [Compound 5, N-[N-[(RS)-3-(3-methoxy-4-hydroxyphenyl)butyl]-L-α-aspartyl]-L-tyrosine 1-methyl ester]	25000 times the sweetness of sugar	25000	
COC(=O)[C@H](Cc1ccccc1)NC(=O)[C@H](CC(=O)O)NCCC(C)(C)c1ccc(O)c(O)c1 [Compound 23, N-[N-[3-(3,4-dihydroxyphenyl)-3-mehylbutyl]-L-α-aspartyl]-L-phenylalanine 1-methyl ester]	50000 times the sweetness of sugar	50000	
COC(=O)[C@H](Cc1ccccc1)NC(=O)[C@H](CC(=O)O)NCCC(C)c1ccc(O)c(C)c1 (mixture of isomers) [Compound 11, N-[N-[(RS)-3-(3-methyl-4-hydroxyphenyl)butyl]-L-α-aspartyl]-L-phenylalanine 1-methyl ester]	50000 times the sweetness of sugar	50000	
COC(=O)[C@H](Cc1ccccc1)NC(=O)[C@H](CC(=O)O)NCCC(C)(C)c1ccc(OC)cc1 [Compound 7, N-[N-[3-(4-methoxyphenyl)-3-methylbutyl]-L-α-aspartyl)-L-phenylalanine 1-methyl ester]	25000 times the sweetness of sugar	25000	
COC(=O)[C@H](Cc1ccccc1)NC(=O)[C@H](CC(=O)O)NCCC(C)(C)C [N-[N-(3,3-dimethylbutyl)-L-α-aspartyl]-L-phenylalanine 1-methyl ester, reference compound]			sweetening potency [1]: 10,000 times that of sucrose; sweetening potency ([1]; listed as N-[N-(3,3-dimethylbutyl)-L-α-aspartyl]-L-phenylalanine 1-methylester): 10000 times that of sucrose
COC(=O)[C@](C)(Cc1ccccc1)NC(=O)[C@H](CC(=O)O)NCCC(C)(C)c1ccc(OC)c(O)c1 [Compound 22]	40000 times the sweetness of sugar	40000	
COC(=O)[C@H](Cc1ccccc1)NC(=O)[C@H](CC(=O)O)NCCC(C)(C)c1ccc(OC)c(C)c1 [Compound 17, N-[N-[3-(3-methyl-4-methoxyphenyl)-3-methylbutyl]-L-α-aspartyl]-L-phenylalanine 1-methyl ester]	30000 times the sweetness of sugar	30000	
